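Cultured in 96-well plates, cells were exposed to test compound for 48 hours across five concentrations. The concentration for 50% growth inhibition is given as GI50. TGI denotes the concentration required for complete inhibition of growth.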

Common to all, as to experiment: inhibition of tumour cell growth, NCI panel, 48 h
Test [1] relates to EKVX NSCLC.
In test [2] the test system is UACC-257 melanoma.
For test [3], the system named is LOX IMVI melanoma.
Test [4] deals with SF-539 CNS.
For test [5], the system named is HOP-92 NSCLC.
The test system of test [6] is RPMI-8226 leukemia.
Test [7] deals with SN12C renal.
Test [8] deals with MALME-3M melanoma.
Test [9] concerns OVCAR-8 ovarian.
In test [10] the test system is HT29 colon.

With `COCc1c(-c2ccc(NC(=O)Nc3cc(C(F)(F)F)ccc3F)c(F)c2)c2c(N)ncnn2c1CN1CCOCC1`, the GI50 in [1] was 1.71 µM; in [2], 3.43 µM; in [3], 1.36 µM; in [4], 0.283 µM; in test [5], 0.382 µM; in test [6] it was 1.91 µM. The GI50 in [7] was 1.39 µM; in test [8] it was 2.72 µM; in test [9], 2.66 µM; in test [10] it was 1.62 µM. Further, the TGI in test [1] was 7.62 µM; in test [2] it was greater than 10 µM; in test [3] it was 5.77 µM; in test [4], 2.64 µM; in test [5], 5.97 µM; in test [6] it was 7.85 µM. Moreover, the TGI in [7], in test [8], in [9] and in test [10] was greater than 10 µM each time.
For the compound `COc1cccc(Nc2nccc(-c3cnn4ncccc34)n2)c1`, the GI50 in test [1] is 0.0709 µM; in test [2], 0.0563 µM; in test [3], 0.0275 µM; in test [4] it was 0.0502 µM; in [5], 0.0392 µM; in [6] it was 0.0621 µM. Further, the GI50 was 0.0837 µM in test [7], 0.0739 µM in [8], 0.0681 µM in test [9] and 0.0513 µM in [10]. Besides, the TGI was 0.16 µM in [2]; greater than 25 µM in test [3]; 0.143 µM in [4]; 0.157 µM in [5]; 0.166 µM in test [6]; greater than 25 µM in test [7]. Also, the TGI in test [8] was 0.204 µM; in test [9], greater than 25 µM; in test [10] it was 0.198 µM.
In the case of `O=C(O)CCC(C(=O)O)N1C(=O)C2C3CCC(C3)C2C1=O` (centres undefined), the TGI in [1], in [2], in test [3], in [4], in test [5] and in test [6] was greater than 100 µM throughout. In addition, the TGI in test [7], in [8], in test [9] and in test [10] was greater than 100 µM each time.
Take `CCN(CC)CCn1c2ccccc2c(=O)c2c(OC)ccc(OC)c21`: the TGI in test [1], in test [2], in test [3], in test [4], in test [5] and in test [6] was greater than 100 µM in each case. In addition, the TGI in [7], in [8], in [9] and in test [10] was greater than 100 µM in each case.
`COCCn1cc(-c2csc(-c3c[nH]c4ccc(Br)cc34)n2)c2cccnc21`: the GI50 in [1] was 2.05 µM; in test [2], 8.69 µM; in test [3] it was 2.67 µM; in test [4] it was 7.34 µM; in test [5], 4.39 µM; in [6], 5.14 µM. Moreover, the GI50 is 7.72 µM in test [7], 3.66 µM in test [8], 5.35 µM in [9] and 3.36 µM in [10]. Also, the TGI was greater than 100 µM in [1]; 64.2 µM in test [2]; greater than 100 µM in [3]; greater than 100 µM in [4]; 30.7 µM in [5]; greater than 100 µM in test [6]. The TGI in test [7] was greater than 100 µM; in [8] it was 57.6 µM; in test [9], greater than 100 µM; in test [10], greater than 100 µM.
Consider `Cc1cc(Cl)cc(Cc2cc(Cl)cc(C)c2O)c1O`, for which the GI50 in [1] is 3.62 µM; in test [2], 3.02 µM; in test [3], 3 µM; in [4], 2.45 µM; in test [5] it was 0.397 µM; in test [6] it was 1.58 µM. For the same compound, the GI50 in [7] was 2.27 µM; in test [8], 2.35 µM; in test [9], 2.1 µM; in test [10] it was 3.63 µM. Further, the TGI amounted to 68.8 µM in test [1]; 12.3 µM in test [2]; 8.9 µM in test [3]; 6.62 µM in test [4]; 2.83 µM in test [5]; 9.35 µM in test [6]. Besides, the TGI in test [7] is 9.7 µM; in test [8], 6.86 µM; in test [9], 6.16 µM; in [10], 10.7 µM.
As for `COC(=O)[C@]12CC[C@@H](C)[C@H](C)[C@@H]1C1=CC[C@@H]3[C@@]4(C)C(C=O)=C[C@@](C)(COC(=O)/C=C/c5ccccc5)[C@@H]4[C@H](O)C[C@@]3(C)[C@]1(C)CC2`, the GI50 in [1] is 2.86 µM; in [2], 2.36 µM; in [3], 1.77 µM; in [4], 3.78 µM; in [5], 2.19 µM; in [6] it was 1.59 µM. Further, the GI50 was 3.8 µM in test [7], 1.99 µM in test [8], 3.98 µM in test [9] and 3.1 µM in test [10]. Further, the TGI was 11.5 µM in [1]; 6.82 µM in test [2]; 3.66 µM in test [3]; 17.5 µM in test [4]; 9.1 µM in [5]; 5.73 µM in test [6]. For the same compound, the TGI came out at 26.5 µM in test [7], 5.14 µM in [8], 30.3 µM in [9] and 10.2 µM in test [10].
As for `C/C(=N/N=C(N)N)c1ccc(NC(=O)Nc2ccc(/C(C)=N/N=C(N)N)cc2)cc1`, the GI50 in test [1] was 19.2 µM; in test [2] it was 31.1 µM; in [3], 21.5 µM; in test [4], 17.9 µM; in test [5], 14.2 µM; in test [6], 3.77 µM. For the same compound, the GI50 in test [7] is 14.2 µM; in [8], 16.5 µM; in test [9] it was 21.8 µM; in [10] it was 27.3 µM. Moreover, the TGI in [1] was 49 µM; in test [2], greater than 89.6 µM; in [3], greater than 70.1 µM; in test [4] it was 36.1 µM; in test [5], 33.8 µM; in test [6], 34.2 µM. For the same compound, the TGI in test [7] is 45.7 µM; in test [8], 46.9 µM; in test [9], greater than 78.8 µM; in test [10], greater than 100 µM.
For the compound `N#CC1C(=O)NC(c2ccccc2[N+](=O)[O-])c2sc3c(F)cccc3c21` (centres undefined), the GI50 in [1] was 3.41 µM; in [2], 0.961 µM; in [3] it was 15.9 µM; in test [4] it was 22 µM; in test [5], 11.3 µM; in test [6], 5.67 µM. Also, the GI50 in [7] is 16.4 µM; in [8], 19.5 µM; in test [9], 9.59 µM; in test [10] it was 11.5 µM. Also, the TGI in [1] was 41.8 µM; in test [2] it was 4.72 µM; in [3] it was 37.8 µM; in [4], 72.8 µM; in test [5], 47.3 µM; in test [6], greater than 60.3 µM. Further, the TGI in test [7] is greater than 96.3 µM; in test [8] it was 63.7 µM; in [9], 80.9 µM; in test [10] it was greater than 93.9 µM.
For `CCN=C(C#N)NCC`, the TGI in test [1], in [2], in [3], in [4], in test [5] and in test [6] was greater than 100 µM each time. Besides, the TGI in test [7], in test [8], in test [9] and in test [10] was greater than 100 µM each time.
Consider `C[CH2][Sn]([CH2]C)([O]C(=O)c1ccc(OC)c(OC)c1OC)[O]C(=O)c1ccc(OC)c(OC)c1OC`, for which the GI50 in test [1] is greater than 100 µM; in test [2], greater than 78.9 µM; in test [3], 27.2 µM; in test [4], 44.3 µM; in test [5], 21.8 µM; in [6], 22.7 µM. Further, the GI50 in test [7] is 99.8 µM; in [8], 21.2 µM; in [9] it was greater than 100 µM; in [10], greater than 96 µM. In addition, the TGI was greater than 100 µM in test [1]; greater than 100 µM in test [2]; greater than 69.7 µM in [3]; greater than 71.8 µM in test [4]; 49.6 µM in test [5]; 72.2 µM in [6]. For the same compound, the TGI was greater than 100 µM in test [7], 50.6 µM in test [8], greater than 100 µM in test [9] and greater than 100 µM in test [10].
As for `Cc1cc(Cl)ccc1NC(=O)C(=O)C(C(=O)c1ccccc1)C1OC(=O)c2ccccc21` (centres undefined), the TGI in [1], in test [2], in test [3], in test [4], in [5] and in test [6] was greater than 100 µM throughout. For the same compound, the TGI in test [7], in [8], in test [9] and in [10] was greater than 100 µM in each case.
For the compound `Cn1cnc([N+](=O)[O-])c1Sc1nccc(=O)[nH]1`, the TGI in test [1], in [2], in test [3], in test [4], in test [5] and in [6] was greater than 100 µM throughout. Also, the TGI in test [7], in [8], in test [9] and in test [10] was greater than 100 µM throughout.

Values taken from PubChem BioAssay (NCI).
